Data taken from US8603502B2, “Compositions comprising jasmonic acid derivatives and use of these derivatives” (L'Oreal S.A., priority 2002, dated 2013).

Legend:
Assay type in all cases: cell-based
isolated stratum corneum [1] = experiment: Keratolytic power, Test 2: counting corneocytes released from isolated stratum corneum, comparison with jasmonic acid; conditions: 1% by weight solution in PBS + 0.1% Triton X100, pH 7.4; 37° C., 24 hours
Protocol: (§1) The keratolytic power of a number of compounds of this disclosure was studied. This test comprises counting corneocytes released following incubation of patches of isolated stratum corneum in the presence of the test compounds.
(§2) Stratum corneum isolated by trypsin/heat from surgical plasties was used. A number of different stratum corneum samples were used. Discs of 4 mm in diameter were punched out and placed at the bottom of a 96-well plate.
A 1% by weight solution of the compound of Example 1, or jasmonic acid (comparison), was prepared in a PBS buffer supplemented with 0.1% of Triton X100. The pH of the solution was adjusted to 7.4.
(§3) 50 microliters of test solution or of control solution (PBS buffer supplemented with 0.1% of Triton X100) were added to each well. Incubation was carried out at 37° C. with stirring for 24 hours.
(§4) 10 microliters of solution were then withdrawn and were placed in a Malassez cell. The liberated corneocytes were counted under the microscope.
The results obtained are as follows, expressed as the number of liberated corneocytes per microliter, averaged over three tests. Corneocyte fragments are not counted.

isolated stratum corneum [2] = experiment: Keratolytic power, Test 1: counting corneocytes released after incubating patches of isolated stratum corneum with the test compound; conditions: 1% by weight solution in PBS + 0.1% Triton X100, pH 7.4, 37° C., 24 hours
Protocol: as §1, §2
A 1% by weight solution of the compound of Example 3 was prepared in a PBS buffer supplemented with 0.1% of Triton X100. The pH of the solution was adjusted to 7.4.
as §3, §4
The results obtained are as follows, expressed as the number of liberated corneocytes per microliter, averaged over three tests. Corneocyte fragments were not counted.

isolated stratum corneum [3] = experiment: Keratolytic power, Test 3: counting corneocytes released from isolated stratum corneum, PEG 8/ethanol vehicle; conditions: 2% by weight solution in water with 50% PEG 8 and 30% ethanol, 37° C., 24 hours; for number of liberated corneocytes per microliter, Sample 1: Sample 1, average over three tests; for number of liberated corneocytes per microliter, Sample 2: Sample 2, average over three tests; for number of liberated corneocytes per microliter, Average: average of Samples 1-2
Protocol: as §1, §2
A 2% by weight solution of the compound of Example 3, or 2-hydroxy-4-octanoylbenzoic acid (comparison), was prepared in an aqueous solution containing 50% by weight of polyethylene glycol (PEG 8) and 30% by weight of ethanol.
50 microliters of test solution or of control solution were added to each well. Incubation was carried out at 37° C. with stirring for 24 hours.
10 microliters of solution were then withdrawn and were placed in a Mallassez cell. The liberated corneocytes were counted under the microscope.
The results obtained are as follows, expressed as the number of liberated corneocytes per microliter, averaged over the three tests. Corneocyte fragments were not counted.

Row | SMILES | number of liberated corneocytes per microliter, Average (3 tests per sample, 3 different samples) (isolated stratum corneum [1]) [per microliter] | number of liberated corneocytes per microliter, Average (isolated stratum corneum [2]; average of Samples 1-3) [per microliter] | number of liberated corneocytes per microliter, Sample 1 (isolated stratum corneum [2]; stratum corneum Sample 1, average over three tests) [per microliter] | number of liberated corneocytes per microliter, Sample 2 (isolated stratum corneum [2]; stratum corneum Sample 2, average over three tests) [per microliter] | number of liberated corneocytes per microliter, Sample 3 (isolated stratum corneum [2]; stratum corneum Sample 3, average over three tests) [per microliter] | number of liberated corneocytes per microliter, Sample 1 (isolated stratum corneum [3]) [per microliter] | number of liberated corneocytes per microliter, Sample 2 (isolated stratum corneum [3]) [per microliter] | number of liberated corneocytes per microliter, Average (isolated stratum corneum [3]) [per microliter]
1 | CC/C=C\C[C@H]1C(O)CC[C@@H]1CC(=O)O (mixture of isomers) [Example 1, (+/−)(1R,2R)-3-hydroxy-2-[(2Z)-2-pentenyl]cyclopentaneacetic acid] | 26 ± 7 |  |  |  |  |  |  | 
2 | CCCCC[C@H]1C(O)CC[C@@H]1CC(=O)O (mixture of isomers) [Example 3, (+/−)(1R,2R)-3-hydroxy-2-pentylcyclopentaneacetic acid] |  | 61 ± 33 | 28 ± 9 | 56 ± 7 | 101 ± 11 | 2 ± 3 | 3 ± 1 | 2.5 ± 2
3 | CC/C=C\C[C@H]1C(=O)CC[C@@H]1CC(=O)O (racemic) [Jasmonic acid, (+/−)(1R,2R)-3-oxo-2-[(2Z)-2-pentyl]cyclopentaneacetic acid] | 15 ± 5 |  |  |  |  |  |  | 
4 | CCCCCCCC(=O)c1ccc(C(=O)O)c(O)c1 [2-Hydroxy-4-octanoylbenzoic acid, 2-hydroxy-4-octanoylbenzoic acid, reference compound] |  |  |  |  |  | 3 ± 3 | 4 ± 3 | 3.5 ± 3
